Experimental data reported in patent publication US10760050B2, “Method for producing retinal pigment epithelial cells” (SUMITOMO CHEMICAL COMPANY, LIMITED, priority 2013, dated 2020).

B1: recombinant human BMP4 protein: BMP protein, a substance acting on the BMP signal transduction pathway (protein, UniProt P12644 293-408, looked up)
Bone morphogenetic protein 4: SPKHHSQRARKKNKNCRRHSLYVDFSDVGWNDWIVAPPGYQAFYCHGDCPFPLADHLNSTNHAIVQTLVNSVNSSIPKACCVPTELSAISMLYLDEYDKVVLKNYQEMVVEGCGCR

Test system: Human ES cells (KhES-1-derived)
Assay: Adhesion culture of cells dispersed from human ES cell-derived aggregates with added factors; level of epithelial formation observed under a microscope (Example 5)
Format: cell-based
Details: observed at day 40, compared to the control free of the addition
Experimental: Human ES cells (KhES-1-derived) were cultured according to the methods described in “Ueno, M. et al. PNAS 2006, 103(25), 9554-9559” and “Watanabe, K. et al. Nat Biotech 2007, 25, 681-686”. As the medium, a medium obtained by adding 20% KSR KNOCKOUT™ Serum Replacement; Invitrogen), 0.1 mM 2-mercaptoethanol, 2 mM L-glutamine, 1× non-essential amino acid, 5 ng/ml bFGF to DMEM/F12 medium (Sigma) was used. The cultured ES cells were dispersed into single cells using TrypLE Express (Invitrogen), and the above-mentioned cultured ES cells were suspended in 100 μl of a serum-free medium at 1.2×10^4 cells per one well of a non-cell adhesive 96 well culture plate (sumilon spheroid plates, SUMITOMO BAKELITE Co., Ltd.) to allow for rapid formation of aggregates and subjected to culture at 37° C., 5% CO2. As the serum-free medium therefor, a serum-free medium obtained by adding 10% KSR, 450 μM 1-monothioglycerol, 1× Chemically defined lipid concentrate, 20 μM Y27632 to a 1:1 mixture of F-12 medium and IMDM medium was used. At day 3 from the start of the floating culture, BMP4 was added al a concentration 1.5 nM, and floating culture was continued. A half amount of the culture medium in the well was exchanged every 3 days with the above-mentioned medium not supplemented with a substance acting on the BMP signal transduction pathway. […]

Molecule	level of epithelial formation (pigmentation of retinal pigment epithelial cells) (3 μM added at day 24 from the start of the floating culture, FIG. 5B)	level of epithelial formation (uniformity of epithelium) (1 nM added at day 24, FIG. 5E)
Cc1c[nH]c(-c2cnc(NCCNc3ccc(C#N)cn3)nc2-c2ccc(Cl)cc2Cl)n1 [CHIR99021]	differentiated into darker retinal pigment epithelial cells	
B1		more uniform epithelium
